Common to all, as to test: NCI-60 cell line screen, 48 h
In test [1] the test system is 786-0 renal.
Test [2] has as its system SF-268 CNS.
The test system of test [3] is SF-295 CNS.
Test [4] has as its system MDA-MB-435.
Test [5] has as its system CCRF-CEM leukemia.
Test [6] has as its system M14 melanoma.
Test [7] concerns EKVX NSCLC.
Test [8] relates to HOP-62 NSCLC.
Test [9] deals with MALME-3M melanoma.
Test [10] relates to OVCAR-5 ovarian.
The subject of test [11] is SNB-75 CNS.
Test [12] deals with SK-MEL-2 melanoma.

Structures are written as SMILES.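 Briefly, cells in 96-well plates were exposed to five compound concentrations for 48 h, and endpoints were estimated by linear interpolation. Here, GI50 denotes the concentration required for 50% inhibition of growth. At the TGI there is no net growth.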

Consider 26 compounds from PubChem BioAssay (NCI).

`CC1(C)N=C(C(N)=O)c2ncn(CCO)c2N1`: the TGI in test [1], in test [2], in [3], in test [4], in test [5] and in test [6] was more than 100 µM each time. In addition, the TGI in test [7], in test [8], in test [9] and in [10] was more than 100 µM throughout.
In the case of `COc1ccc(S(=O)(=O)O)cc1-n1nc(C(=O)Nc2ccccc2)n[n+]1-c1cc(S(=O)(=O)[O-])ccc1OC`, the TGI in test [1], in test [2], in test [3], in [4], in [5] and in test [11] was more than 100 µM each time. Moreover, the TGI in [6], in test [7], in test [8], in test [9] and in [10] was more than 100 µM each time.
In the case of `Clc1nc(Cl)c(Cl)c(Cl)n1`, the TGI is 41.4 µM in [1]; 56.9 µM in test [2]; 36.9 µM in test [3]; more than 61 µM in test [4]; 15.2 µM in [5]; 33.8 µM in [11]. Besides, the TGI in test [6] amounted to 34.4 µM; in test [7], 94.4 µM; in [8], 35.7 µM; in [9] it was 35.9 µM; in test [10], 43.1 µM.
Turning to `CCOc1ccc(/C=C(\Cl)c2ccc(OC)c(OC)c2)cc1`, the TGI in test [1] was more than 100 µM; in [2] it was more than 100 µM; in test [3], more than 100 µM; in test [5] it was more than 100 µM; in test [11], more than 100 µM; in test [6], 89.6 µM. Besides, the TGI in test [7], in [8] and in test [9] was more than 100 µM throughout.
Regarding `O=C1CSc2nc3ccccc3n2/C=N\N1`, the TGI in [1], in test [2], in test [3], in test [12], in [4] and in test [5] was more than 100 µM throughout. The TGI in [6] and in [10] was more than 100 µM each time.
As to `O=C(CC/C=C(/CS(=O)(=O)c1ccccc1)S(=O)(=O)c1ccccc1)c1ccccc1`, the TGI in [3], in [12], in test [5], in test [11], in test [6] and in test [7] was more than 100 µM in each case. Moreover, the TGI in [8] and in test [10] was more than 100 µM in each case.
Turning to `O=c1[nH]nc(-c2ccccc2)n1/N=C/c1ccncc1`, the TGI in [1], in test [2], in [3], in [4], in test [5] and in [11] was more than 100 µM in each case. Moreover, the TGI in [6], in test [7], in test [8], in test [9] and in test [10] was more than 100 µM throughout.
For `COc1cc2c(c(OC)c1OC)-c1ccc(SC)c(=O)cc1[C@@H](OC(C)=O)CC2`, the TGI in test [1] was more than 100 µM; in [2], 25.1 µM; in [5] it was 0.0312 µM; in test [11], more than 82.1 µM; in test [6], more than 100 µM; in test [7], more than 100 µM. Moreover, the TGI in test [8] and in [9] was more than 100 µM throughout.
Take `O=C(O)CCCCCOc1cccnc1/C=N/NC1=NCCN1`: the TGI was more than 100 µM in test [1]; more than 100 µM in [2]; more than 100 µM in [3]; more than 100 µM in test [12]; more than 100 µM in [5]; 91.2 µM in test [11]. In addition, the TGI in test [6], in [7], in test [8], in test [9] and in [10] was more than 100 µM in each case.
As for `O=C1O/C(=C(\Br)c2cccc3ccccc23)c2ccccc21`, the TGI was 31.4 µM in [1]; more than 55.7 µM in [2]; more than 53.6 µM in test [3]; more than 61 µM in test [12]; 46.1 µM in test [5]; more than 87.2 µM in test [11]. Further, the TGI was more than 62.8 µM in [6]; more than 59.7 µM in [7]; more than 100 µM in test [8]; more than 60.6 µM in test [9]; more than 54.9 µM in [10].
`CC(=O)[C@@H]1CCC=C2CC[C@]3(C)[C@@H](CC[C@@H]4[C@@]5(C)CCCNC(C)(C)[C@@H]5CC[C@]43C)[C@H]21`: the GI50 in test [3] was 1.81 µM; in [12] it was 2.01 µM; in [4], 1.87 µM; in test [5] it was 2.27 µM; in test [8], 1.82 µM. Moreover, the TGI stood at 3.26 µM in test [3]; 3.69 µM in [12]; 3.49 µM in [4]; 5.63 µM in test [5]; 3.4 µM in [8].
`Cc1c2c(cc3c1[nH]c1ccccc13)C=NCC2`: the TGI in test [2] came to 49.6 µM; in test [3], 27.1 µM; in test [12] it was 21.1 µM; in test [5], 30.5 µM; in test [11], 39.5 µM; in [7], 78.9 µM. Moreover, the TGI came out at 56.4 µM in test [8], 11.7 µM in test [9] and 61 µM in test [10].
With `C=C1C(=O)OC2(C)C3CCC(C3)C12` (configuration not stated), the TGI in test [1], in [2], in test [3], in [12], in test [5] and in test [11] was more than 100 µM each time. Also, the TGI in test [6] was 95.7 µM; in test [7], more than 100 µM; in [8], more than 100 µM; in [9], more than 100 µM; in test [10], more than 100 µM.
With `O=C(Nc1cccc(C(F)(F)F)c1)O/N=C(/Cl)CCl`, the TGI in [1], in test [2], in test [3], in [12], in [5] and in [11] was more than 100 µM each time. Further, the TGI in test [6] was more than 100 µM; in test [7], more than 100 µM; in [8], more than 100 µM; in test [9], more than 100 µM; in test [10] it was 45.3 µM.
For `Cc1ccnc2[nH]c(-c3cccc(Cl)c3)cc(=O)c12`, the TGI in [1], in test [2], in test [3], in test [12], in test [5] and in [6] was more than 100 µM in each case. Also, the TGI is more than 100 µM in [7], more than 74.8 µM in test [8] and more than 100 µM in [10].
Consider `CCCCCCCCCCCCCCCCSCC(COC)COP(=O)([O-])OCC[N+](C)(C)C` (configuration not stated), for which the TGI in [2] was 20.5 µM; in [3], 11.6 µM; in test [12], 29.6 µM; in test [5], 10.1 µM; in test [11], 14.3 µM; in [7] it was 28.4 µM. In addition, the TGI in test [8] is 15.6 µM; in test [9] it was 29.4 µM; in test [10], 26 µM.
Take `CCN(CC)CCCOC(=O)/C=C/c1c(C)[nH]c(=O)[nH]c1=O`: the TGI in [2] was more than 625 µM; in test [3], more than 625 µM; in test [12], more than 394 µM; in test [5] it was more than 625 µM; in [11] it was more than 625 µM; in test [7], more than 625 µM. Further, the TGI in test [8], in test [9] and in [10] was more than 625 µM in each case.
Consider `CCCCCC(=O)N[C@@H](c1ccccc1)C(O)C(=O)OC1C[C@@]2(O)C(OC(=O)c3ccccc3)C3[C@](C)(C(=O)[C@H](O)C(=C1C)C2(C)C)C(OC1OCC(O)C(O)C1O)C[C@H]1OC[C@@]31OC(C)=O` (some centres not stated), for which the TGI is more than 100 µM in test [1]; more than 100 µM in [2]; more than 93.7 µM in test [3]; 1.78 µM in test [4]; more than 100 µM in test [5]; 4.52 µM in [11]. Also, the TGI in test [6] is more than 88.1 µM; in test [7] it was more than 100 µM; in test [8] it was more than 75.8 µM; in [9] it was more than 26.1 µM; in [10] it was more than 100 µM.
Take `C=CC1ON(Cc2ccccc2)CCc2cc(OC)c(OC)cc21` (configuration not stated): the TGI was more than 100 µM in [1]; more than 100 µM in test [2]; more than 100 µM in [3]; 84.9 µM in [4]; more than 100 µM in test [5]; more than 100 µM in [11]. In addition, the TGI in [6], in test [7], in test [8], in test [9] and in test [10] was more than 100 µM each time.
Take `COc1ccc(N2C(=Nc3ccccc3)SC(=N/S(=O)(=O)c3ccccc3)/C2=N\S(=O)(=O)c2ccccc2)cc1`: the TGI is 64.8 µM in [1]; 46 µM in test [5]; 55 µM in test [11]; more than 100 µM in [6]; 61.2 µM in [7]; 98.5 µM in [8]. Moreover, the values for the TGI in test [9] and in [10] were 53.9 µM and 50.7 µM, respectively.
For the compound `CCOC(=O)c1c(Br)c(-c2ccc(Br)cc2)c(Br)n1C`, the TGI in [1] is 89.7 µM; in test [2], 75.9 µM; in [3], 45.6 µM; in test [4], 22.6 µM; in test [5] it was 31.5 µM; in test [11] it was 49.7 µM. Moreover, the TGI in test [6] amounted to 63.3 µM; in test [7] it was 74.2 µM; in [8] it was 53.1 µM; in [9], 62.7 µM; in test [10] it was 59.7 µM. For the same compound, the GI50 in test [4] was 4.26 µM; in test [11] it was 5.3 µM; in [7], 20.3 µM.
`CN1C(=S)C(c2ccccc2)Sc2ccccc21` (configuration not stated): the TGI in [1] was more than 100 µM; in [2] it was more than 100 µM; in [3], 89.4 µM; in [4], more than 100 µM; in [5] it was more than 100 µM; in test [11], more than 100 µM. Also, the TGI in test [6], in test [7], in [8], in [9] and in test [10] was more than 100 µM in each case.
Take `Cc1cc(O)c2c(c1O)C(=O)C13C(=C2O)C(=O)C2C(O)C1C1C(O)C3C(=O)C3=C(O)c4c(O)cc(C)c(O)c4C(=O)C321` (configuration not stated): the TGI in [2] came to 0.458 µM; in [3] it was 0.311 µM; in test [12] it was 0.468 µM; in test [5], 0.613 µM; in [11], 0.841 µM; in test [7], 1.84 µM. For the same compound, the TGI was 0.526 µM in [8], 0.327 µM in test [9] and 9.41 µM in [10].
Regarding `C=C1C[C@@H](O)C[C@@]2(C)C[C@@H]3OC(=O)C(=C)[C@@H]3C[C@H]12`, the TGI was 14.4 µM in [2]; 54.6 µM in test [3]; 39.3 µM in test [12]; more than 36.1 µM in [5]; more than 35.5 µM in test [11]; 53.4 µM in [8]. The TGI worked out at 13.4 µM in test [9] and 28 µM in test [10].
For `Cn1c(C(C#N)c2nc(Cl)ncc2Br)nc2ccccc21` (configuration not stated), the TGI in test [1], in test [2], in test [3], in [4], in test [11] and in test [6] was more than 100 µM each time. Further, the TGI in test [7], in [8], in test [9] and in test [10] was more than 100 µM in each case.
As to `CC(=O)OCC1OC(n2cc(F)c(=O)[nH]c2=O)C(N)C(OC(C)=O)C1OC(C)=O` (configuration not stated), the TGI in test [2], in test [3], in test [12], in [5], in [11] and in test [7] was more than 100 µM each time. Further, the TGI in test [8], in [9] and in [10] was more than 100 µM in each case.
